The test system of test [1] is Bacillus subtilis. As to the kind of experiment: Antimicrobial activity against Bacillus subtilis at 100 ug/ml. In kind it is functional, organism-based.
Test [2] relates to Staphylococcus aureus. As to the kind of experiment: Antimicrobial activity against Staphylococcus aureus at 100 ug/ml. Type of test: functional, organism-based.

Each structure is given as a SMILES string. The source made the active and inactive calls. No cut-off for these calls is given here.

For `COc1cc(C/C=C(/C)CC/C=C(\C)CC/C=C(\C)CCC=C(C)C)cc(O)c1O`, the outcome in test [1] and in test [2] was Active.

The record behind these values is ChEMBL document CHEMBL1158944, “Chemistry of Sponges, XII. A New Dihydric Phenol from the Sponge Fasciospongia sp” (J Nat Prod, 1991).
